Data: patent US20230190750A1, “METHODS OF TREATING AND PREVENTING CANCER DRUG RESISTANCE” (Genentech, Inc., priority 2014, published 2023)

Key:
Assay type in all cases: cell-based
CHL-1 melanoma cells = assay: Single and dual drug treatment, cell growth of CHL-1 melanoma cells; details: growth observed on days 7, 14, 21, 28, 35
Method: FIG. 11.|A drug screen was performed on CHL-1 melanoma cells. The cells were treated with DMSO (control), GDC-0973 (i.e., cobimetinib), GDC-0032 (PI3K-Alpha Inhibitor), BFJ-398 (pan FGFR inhibitor), GDC-0973 and GDC-0032, or GDC-0973 and BGJ-398.
(§1) Experiments were performed on CHL-1 melanoma cells to determine the effect of single and dual drug treatment on cell growth (FIG. 11). The cells were treated with DMSO (control), GDC-0973, GDC-0032, BGJ398, GDC-0973 and GDC-0032, or GDC-0973 and BGJ398. Cell growth was observed on days 7, 14, 21, 28, and 35, or until the cells had reached near 100% confluency. […] In contrast, cells treated with the combination treatment of GDC-0973 and GDC-0032 or the combination of GDC-0973 and BGJ398 never reached confluency through day 35.

[1] = system: HS 895.T normal skin fibroblast cells; assay: Single and dual drug treatment, cell growth of HS 895.T normal skin fibroblast cells; details: growth observed on days 7, 14, 21, 28, 35
Method: FIG. 13.|A drug screen was performed on Hs 895.T normal skin fibroblast cells. The cells were treated with DMSO (control), GDC-0973 (i.e., cobimetinib), GDC-0032 (PI3K-Alpha Inhibitor), BFJ-398 (pan FGFR inhibitor), GDC-0973 and GDC-0032, or GDC-0973 and BGJ-398.
as §1, with “HS 895.T normal skin fibroblast” for “CHL-1 melanoma”, “13).” for “11).”, “The” for “In contrast,”, “GDC-0973, GDC-0032,” for “the combination treatment of”, “GDC-0032, and” for “GDC-0032 or the combination of”

[2] = system: pERK in SK MEL 24 VemR cells; assay: Western blot of treated SK MEL 24 VemR cells; details: GDC-0973 0.5 μM, BGJ398 1 μM, 24 hours
Method: FIG. 14.|Single resistant SK MEL 24 VemR (SK MEL 24 cells resistant to vemurafenib) were treated with vemurafenib (i.e., PLX4032), BGJ398, and/or cobimetinib (i.e., GDC-0973). The cells were then processed and the presence/absence of FGFR1, pAKT, pMEK, pERK, PARP, pBAD, BIM, and βactin (control) were detected by Western blot. A melanoma cell line was made that is resistant to vemurafenib (“SK MEL 24 VemR”). The SK MEL 24 VemR cells were treated with vemurafenib (PLX4032), BGJ398, GDC-0973, BGJ398 and GDC-0973, vemurafenib and BGJ398, vemurafenib and GDC-0973, or vemurafenib, BGJ398, and GDC-0973. In all treatment conditions, the concentration of vemurafenib was 5 μM, the concentration of BGJ398 was 1 μM, and the concentration of GDC-0973 was 0.5 μM. The exposure time for all treatments was 24 hours. The cells were then processed and FGFR1, pAKT, pMEK, pERK, PARP, pBAD, BIM, and P-actin were probed for using Western blot.

melanoma cell line = assay: Secreted factor screen for resistance to B-raf and MEK antagonists in melanoma cell lines
Method: (§2) FIG. 1A-D.| Factors secreted by tumor cells and/or the tumor microenvironment contribute to drug resistance through activation of cell-surface receptors. […] D, Secreted growth factors which promote resistance to PLX4032 reactivate MAPK and PI3K pathways. Activation of MAPK by FGF2, MAPK and AKT by HGF and AKT by NRG1 and SCF are shown in 624 MEL cells in the presence of PLX4032. Treatments were 5 μM PLX4032 for 24 hours and 50 ng·mL FGF2, HGF, NRGB1, or SCF for 10 minutes.

[3] = system: HER2+ breast cancer cells; assay: Immunoblot of HER2+ breast cancer cells exposed to FGF2 with or without lapatinib; details: FGF2 50 ng/mL for 10 minutes or 24 hours, with or without lapatinib 2 μM
Method: FIG. 6A-B.| FGF2 reactivates key signalling pathways to promote resistance and stimulates sustained activation of downstream signaling. A, An immunoblot of cells exposed to FGF2 for 10 min compared to cells absent exposure. B, An immunoblot of cells exposed to FGF2 for 24 hrs compared to cells absent FGF2 exposure.
Furthermore, it was determined that FGF2 reactivates key signalling pathways to promote resistance (FIG. 6). This was shown in a cell assay wherein HER2+ breast cancer cells were exposed to FGF2 (50 ng/mL) for 10 minutes in the presence or absence of lapatinib (2 μM) (FIG. 6A). Similarly, an assay was performed wherein HER2+ breast cancer cells were exposed to FGF2 (50 ng/mL) for 24 hours in the presence or absence of lapatinib (2 μM) (FIG. 6B).

[4] = system: HER2+ breast cancer cell lines; assay: FGF2 rescue (drug resistance) in HER2+ breast cancer cell lines; details: of 10 HER2+ breast cancer cell lines
Method: (§3) FIG. 5A-C.| Screen of 10 melanoma cell lines and 10 breast cancer lines was performed to determine the role of FGF signalling in drug resistance. […] C, Summary of FGF receptors, their subfamily, and their ligands.
(§4) FGF signalling and resistance was studied in 10 HER2+ breast cancer cell lines and in 10 B-raf mutant melanoma cell lines (FIG. 5). 7 of the 10 HER2+ breast cancer cell lines were rescued by FGF2 (FIG. 5A). 8 of the 10 B-raf […] were rescued by FGF2 (FIG. 5B). Subsequent analysis determined that 50-70% of the melanoma lines with the V600E mutation were rescued by FGF2 (n=30).

624 MEL cells = assay: Reactivation of MAPK and PI3K pathways by secreted growth factors in presence of PLX4032; details: 5 μM PLX4032 24 hours, 50 ng/mL factor 10 minutes
Method: as §2

[5] = system: B-raf mutant melanoma cell lines; assay: FGF2 rescue (drug resistance) in B-raf mutant melanoma cell lines
Method: as §3, §4

Molecule | day by which cells reached confluency (CHL-1 melanoma cells) | rescue of tumor cells from B-raf and MEK antagonists (melanoma cell line) | pathway activated in the presence of PLX4032 (624 MEL cells) | also measured
CCN1CCN(c2ccc(Nc3cc(N(C)C(=O)Nc4c(Cl)c(OC)cc(OC)c4Cl)ncn3)cc2)CC1 [BGJ398, 3-(2,6-Dichloro-3,5-dimethoxy-phenyl)-1-{6-[4-(4-ethyl-piperazin-1-yl)-phenylamino]-pyrimidin-4-yl}-1-methyl-urea] | ≤ 14 days | – | – | day by which cells reached confluency [1]: ≤ 28 days
Cc1nc(-c2cn3c(n2)-c2ccc(-c4cnn(C(C)(C)C(N)=O)c4)cc2OCC3)n(C(C)C)n1 [GDC-0032] | ≤ 7 days | – | – | –
O=C(c1ccc(F)c(F)c1Nc1ccc(I)cc1F)N1CC(O)([C@@H]2CCCCN2)C1 [GDC-0973, [3,4-Difluoro-2-(2-fluoro-4-iodo-phenylamino)-phenyl]-((S)-3-hydroxy-3-pi-peridin-2-yl-azetidin-1-yl)-methanone] | ≤ 28 days | – | – | pERK levels (Western blot) [2]: lower pERK levels
FGF2: secreted growth factor, FGFR ligand, promotes resistance | – | most broadly and potently | MAPK | activation of downstream signalling [3]: stimulates sustained activation of downstream signalling; number of cell lines rescued by FGF2 [4]: 7; number of cell lines rescued by FGF2 ([5]; of 10 cell lines (FIG. 5B)): 8; melanoma lines with the V600E mutation rescued by FGF2 ([5]; subsequent analysis, n=30): 50-70%
HGF: secreted growth factor promoting resistance to PLX4032 | – | most broadly and potently | MAPK and AKT | –
SCF: secreted growth factor promoting resistance to PLX4032 | – | – | AKT | –
